# Experimental data taken from patent US4011390A, “Semi-synthetic aminocyclitol aminoglycoside antibiotics and methods for the preparation thereof” (Schering-Plough Corporation, priority 1974, dated 1977).
# Where two headings read alike, the source gives them in different places.
# Assays:
# Format in all cases: cell-based
# Bacillus subtilis = assay: Disc test, Bauer-Kirby technique with 10 Mcg. discs; conditions: Bacillus subtilis, ATCC6633, strain ATCC 6633
# Source text: (§1) Disc Test Results (Replicate Tests) With The Mutamicins, Sisomicin and
# (§2) Bauer-Kirby Technique^1 With 10 Mcg. Discs
# (§3) ^1 Bauer, Kirby, Sherris and Turck, American Journal of Clinical
# Escherichia coli = assay: as above; conditions: Escherichia coli, read-out: Zone Size
# Source text: as §1, §2, §3
# Klebsiella pneumoniae [1] = assay: as above; conditions: Klebsiella pneumoniae
# Source text: as §1, §2, §3
# Proteus airabilis = assay: as above; conditions: strain Harding
# Source text: as §1, §2, §3
# Proteus rettgeri = assay: as above; conditions: Providencia rettgeri
# Source text: as §1, §2, §3
# Providence 164 = assay: as above; conditions: strain 164
# Source text: as §1, §2, §3
# Pseudomonas aeruginosa = assay: as above; conditions: Pseudomonas aeruginosa
# Source text: as §1, §2, §3
# Salmonella typhimurium = assay: as above; conditions: Salmonella enterica, Group B
# Source text: as §1, §2, §3
# Staphylococcus aureus = assay: as above; conditions: Staphylococcus aureus
# Source text: as §1, §2, §3
# Streptococcus pyogenes = assay: as above; conditions: Streptococcus pyogenes
# Source text: as §1, §2, §3
# Klebsiella pneumoniae [2] = assay: Activity against resistant strains; conditions: gentamicin, tobramycin and kanamycin resistant adenylylating strains
# Source text: (§4) In many instances, bacterial resistance is related to the organism's ability to inactivate the antibacterial agent via enzymatic (biochemical) means. Some species inactivate aminoglycosides antibiotics by acetylating the antibacterial agent, others by phosphorylation and still others by adenylylating. Some strains have several different inactivating capabilities. Further, the inactivation reactions occur at a specific site or sites on the antibacterial agent. We have shown by the compounds of this invention that alteration of sites on the antibiotic molecule not directly involved in inactivation processes can nevertheless frustrate these inactivation processes. […] The tables illustrate that the mutamicins include compounds which are active against strains having different mechanisms of inactivation of gentamicin, sisomicin, kanamycin, neomycin and torbramycin. For example, some mutamicins are effective against strains of E. coli which contain adenylylating R factors such as E. coli W677/R55 and LA290/R55. These E. coli strains are resistant to gentamicin, sisomicin and torbramycin. Some are also effective against gentamicin, tobramycin and kanamycin resistant adenylylating strains of Klebsiella pneumoniae and also kanamycin, neomycin phosphorylating strains of E. coli and Klebsiella pneumoniae. Further, some mutamicins are effective against gentamicin and sisomicin resistant strains of Pseudomonas aeruginosa and gentamicin, sisomicin, tobramycin resistant Providence which is sensitive to kanamycin. Thus, the mutamicins afford a means for combatting strains of bacteria which have already developed a variety of mechanisms for resisting the action of many of the antibiotics known in the art or currently in commercial use.
# Providence = assay: Activity against resistant strains; conditions: gentamicin, sisomicin, tobramycin resistant Providence
# Source text: as §4
# E. coli = assay: Activity against resistant strains; conditions: E. coli W677/R55 and LA290/R55
# Source text: as §4
# [3] = ATCC10536, strain ATCC 10536, 10 Mcg. discs
# [4] = strain St. Michael 1574-1, 10 Mcg. discs
# [5] = strain Swidinsky 4195, 10 Mcg. discs
SMILES,zone of inhibition at 10 µg/disc (Bacillus subtilis),zone of inhibition at 10 µg/disc (Escherichia coli; [3]),"zone of inhibition at 10 µg/disc (Escherichia coli; strain JR66, 10 Mcg. discs)","zone of inhibition at 10 µg/disc (Escherichia coli; strain JR88, 10 Mcg. discs)","zone of inhibition at 10 µg/disc (Escherichia coli; strain JR90, 10 Mcg. discs)",zone of inhibition at 10 µg/disc (Escherichia coli; [4]),zone of inhibition at 10 µg/disc (Escherichia coli; [5]),"zone of inhibition at 10 µg/disc (Escherichia coli; strain W677/R55, 10 Mcg. discs)",zone of inhibition at 10 µg/disc (Klebsiella pneumoniae [1]; strain Ad 17),zone of inhibition at 10 µg/disc (Klebsiella pneumoniae [1]; strain Ad 18),zone of inhibition at 10 µg/disc (Klebsiella pneumoniae [1]; strain Georgetown 3020),zone of inhibition at 10 µg/disc (Klebsiella pneumoniae [1]; strain Georgetown 3694),zone of inhibition at 10 µg/disc (Proteus airabilis),zone of inhibition at 10 µg/disc (Proteus rettgeri),zone of inhibition at 10 µg/disc (Providence 164),zone of inhibition at 10 µg/disc (Pseudomonas aeruginosa; strain Capetown 18),zone of inhibition at 10 µg/disc (Pseudomonas aeruginosa; strain D-2),zone of inhibition at 10 µg/disc (Pseudomonas aeruginosa; strain St. Michael 413),zone of inhibition at 10 µg/disc (Pseudomonas aeruginosa; strain St. Michael 836),zone of inhibition at 10 µg/disc (Pseudomonas aeruginosa; strain St. Michael 1262),also measured
CN[C@@H]1[C@@H](O)[C@@H](O[C@@H]2C[C@H](O[C@H]3OC(CN)=CC[C@H]3N)[C@@H](N)C[C@H]2N)OC[C@]1(C)O [Mutamicin 2],33 mm,28 mm,26 mm,22 mm,25 mm,27 mm,25 mm,21 mm,23 mm,25 mm,21 mm,22 mm,26 mm,24 mm,25 mm,22 mm,26 mm,27 mm,28 mm,27 mm,"zone of inhibition at 10 µg/disc (Escherichia coli; strain 589, 10 Mcg. discs): 24 mm; zone of inhibition at 10 µg/disc (Escherichia coli; strain LA290/R55, 10 Mcg. discs): 21 mm; zone of inhibition at 10 µg/disc (Pseudomonas aeruginosa; strain St. Michael 762): 26 mm; zone of inhibition at 10 µg/disc (Pseudomonas aeruginosa; strain St. Michael 1395): 28 mm; zone of inhibition at 10 µg/disc (Pseudomonas aeruginosa; strain Stone 20): 33 mm; zone of inhibition at 10 µg/disc (Pseudomonas aeruginosa; strain Stone 39): 27 mm; zone of inhibition at 10 µg/disc (Pseudomonas aeruginosa; strain Stone 130): 25 mm; zone of inhibition at 10 µg/disc (Pseudomonas aeruginosa; strain Stone 138): 23 mm; zone of inhibition at 10 µg/disc (Salmonella typhimurium): 27 mm; zone of inhibition at 10 µg/disc (Staphylococcus aureus; ATCC6538P, strain ATCC 6538P): 27 mm; zone of inhibition at 10 µg/disc (Staphylococcus aureus; strain 59N): 29 mm; zone of inhibition at 10 µg/disc (Staphylococcus aureus; strain 1118): 14 mm; zone of inhibition at 10 µg/disc (Staphylococcus aureus; strain Grey): 16 mm; zone of inhibition at 10 µg/disc (Staphylococcus aureus; strain Wood): 29 mm; zone of inhibition at 10 µg/disc (Staphylococcus aureus; strain Ziegler): 28 mm; zone of inhibition at 10 µg/disc (Streptococcus pyogenes; strain B-Cruz): 17 mm; zone of inhibition at 10 µg/disc (Streptococcus pyogenes; strain C): 15 mm"
NC[C@H]1O[C@H](O[C@H]2[C@H](O)[C@@H](O[C@H]3O[C@H](CO)[C@@H](O)[C@H](N)[C@H]3O)[C@H](N)C[C@@H]2N)[C@H](O)[C@@H](O)[C@@H]1O [kanamycin],–,–,–,–,–,–,–,–,–,–,–,–,–,–,–,–,–,–,–,–,activity against resistant adenylylating strains (Klebsiella pneumoniae [2]): resistant; activity against resistant Providence (Providence): sensitive
NC[C@H]1O[C@H](O[C@H]2[C@H](O)[C@@H](O[C@H]3O[C@H](CO)[C@@H](O)[C@H](N)[C@H]3O)[C@H](N)C[C@@H]2N)[C@H](N)C[C@@H]1O [tobramycin],–,–,–,–,–,–,–,–,–,–,–,–,–,–,–,–,–,–,–,–,activity against strains containing adenylylating R factors (E. coli): resistant; activity against resistant adenylylating strains (Klebsiella pneumoniae [2]): resistant; activity against resistant Providence (Providence): resistant
CN[C@@H]1[C@@H](O)[C@@H](O[C@@H]2[C@@H](N)[C@H](O[C@H]3OC(CN)=CC[C@H]3N)[C@@H](N)C[C@H]2N)OC[C@]1(C)O [Mutamicin 5],28 mm,24 mm,0 mm,0 mm,0 mm,22 mm,0 mm,10 mm,20 mm,21 mm,0 mm,0 mm,19 mm,13 mm,9 mm,0 mm,0 mm,11 mm,10 mm,10 mm,"zone of inhibition at 10 µg/disc (Escherichia coli): 18 mm; zone of inhibition at 10 µg/disc (Pseudomonas aeruginosa; strain St. Michael 1395): 0 mm; zone of inhibition at 10 µg/disc (Pseudomonas aeruginosa; strain Stone 20): 16 mm; zone of inhibition at 10 µg/disc (Pseudomonas aeruginosa; strain Stone 39): 12 mm; zone of inhibition at 10 µg/disc (Pseudomonas aeruginosa; strain Stone 130): 0 mm; zone of inhibition at 10 µg/disc (Pseudomonas aeruginosa; strain Stone 138): 0 mm; zone of inhibition at 10 µg/disc (Salmonella typhimurium): 22 mm; zone of inhibition at 10 µg/disc (Staphylococcus aureus; ATCC6538P, strain ATCC 6538P): 21 mm; zone of inhibition at 10 µg/disc (Staphylococcus aureus; strain 59N): 23 mm; zone of inhibition at 10 µg/disc (Staphylococcus aureus; strain Wood): 25 mm; zone of inhibition at 10 µg/disc (Staphylococcus aureus; strain Ziegler): 23 mm"
CN[C@@H]1[C@@H](O)[C@@H](O[C@H]2[C@H](N)[C@H](O)[C@H](N)[C@@H](O[C@H]3OC(CN)=CC[C@H]3N)[C@@H]2O)OC[C@]1(C)O [Mutamicin 4],29 mm,27 mm,18 mm,16 mm,22 mm,25 mm,17 mm,13 mm,25 mm,24 mm,19 mm,19 mm,21 mm,14 mm,0 mm,16 mm,17 mm,19 mm,19 mm,19 mm,"zone of inhibition at 10 µg/disc (Escherichia coli; strain 589, 10 Mcg. discs): 26 mm; zone of inhibition at 10 µg/disc (Escherichia coli; strain Baker 2, 10 Mcg. discs): 24 mm; zone of inhibition at 10 µg/disc (Klebsiella pneumoniae [1]; strain Ad 22): 26 mm; zone of inhibition at 10 µg/disc (Pseudomonas aeruginosa; strain St. Michael 1395): 19 mm; zone of inhibition at 10 µg/disc (Pseudomonas aeruginosa; strain Stone 20): 28 mm; zone of inhibition at 10 µg/disc (Pseudomonas aeruginosa; strain Stone 39): 20 mm; zone of inhibition at 10 µg/disc (Pseudomonas aeruginosa; strain Stone 130): 14 mm; zone of inhibition at 10 µg/disc (Pseudomonas aeruginosa; strain Stone 138): 11 mm; zone of inhibition at 10 µg/disc (Salmonella typhimurium): 25 mm; zone of inhibition at 10 µg/disc (Staphylococcus aureus; ATCC6538P, strain ATCC 6538P): 24 mm; zone of inhibition at 10 µg/disc (Staphylococcus aureus; strain 59N): 26 mm; zone of inhibition at 10 µg/disc (Staphylococcus aureus; strain 1118): 14 mm; zone of inhibition at 10 µg/disc (Staphylococcus aureus; strain Grey): 13 mm; zone of inhibition at 10 µg/disc (Staphylococcus aureus; strain Wood): 26 mm; zone of inhibition at 10 µg/disc (Staphylococcus aureus; strain Ziegler): 24 mm; zone of inhibition at 10 µg/disc (Streptococcus pyogenes; strain 27): 12 mm; zone of inhibition at 10 µg/disc (Streptococcus pyogenes; strain C): 12 mm"
